Source: US20220054493A1, “INHIBITORS OF NGAL PROTEIN” (INSERM (INSTITUT NATIONAL DE LA SANTÉ ET DE LA RECHERCHE …, priority 2019, published 2022)

Tests used:
NGAL = target: T1, NGAL (Homo sapiens, UniProt P80188); assay: NGAL-induced Col 1 secretion in human cardiac fibroblasts (ELISA); format: cell-based; settings: FIGS. 1 and 2 panel B
T1 construct: purchased R&D Systems
Protocol: Cell Culture Human cardiac fibroblasts (primary culture) were obtained from Promocell and maintained in medium (Fibroblast Media 3). Cells were cultured according to the manufacturer's instructions and used between passages 5 and 7. Cells were stimulated with aldosterone (10^-8 M, Sigma) or recombinant hNGAL (500 ng/mL, R&D Systems) for 24 h for protein analysis. Mouse kidney fibroblasts (MKF), were isolated from Wild Type (WT) mice. Briefly, mice 7 to 8 weeks were sacrificed by cervical dislocation and kidneys were cleaned and rinsed in cold DPBS (Dulbecco's Phosphate-Buffered Saline). The renal cortex was minced and incubated in Dulbecco's modified eagle medium/Nutrient mixture F-12 (DMEM/F12, Sigma) containing 1 mg/mL collagenase A (Roche) during 25 minutes at 37° C. The digestion was inactivated by adding culture medium (DMEM/F12+10% FBS) then the cell suspension was passed through a 100-μm cell strainer. After centrifugation, the pellet (containing MKF) was diluted with culture medium then plated in 75 cm^2 culture flask. […]
NGAL, IL6 and collagen type I concentrations were measured in cardiac tissue and cell supernatants, respectively, by ELISA according to the manufacturer's instructions (R&D Systems).
The inhibitory activity of the compounds was evaluated on the NGAL-induced IL6 secretion (NGAL 10 ng/ml) in human cardiac fibroblasts. […]

[1] = tested on: Salt-sensitive hypertension; assay: Salt-sensitive hypertension (L-NAME plus High Salt Diet); format: in vivo, mice; settings: GP1 100 mg/kg/day in food, 10 days; FIG. 17
Protocol: Systolic BP was measured by tail-cuff plethysmography in trained conscious mice at weeks 8-10 using a BP2000 Visitech model. BP was measured every day in the same room at the same hour for 5 consecutive days. The BP measurements (expressed as mmHg) presented are the averages of the last 3 days Salt-sensitive hypertension was induced by co-administration of L-NAME 70 mg/l in drinking water together with 8% NaCl in chow food (High Salt Diet, HSD) for 10 days. GP1 (100 mg/kg/day) was added or not into the food. Control experiments included vehicle (control), L-NAME or high salt (HSD) alone. Systolic blood pressure (expressed as mmHg) was estimated in the last 3 days of treatment.

CYP3A4 = target: T2, CYP3A4 (Homo sapiens, UniProt P08684); assay: CYP3A4 inhibition assay (Vivid CYP3A4 assay); format: in vitro ADME
T2 construct: purchased Thermo Fisher Scientific
T2 sequence (P08684 whole entry): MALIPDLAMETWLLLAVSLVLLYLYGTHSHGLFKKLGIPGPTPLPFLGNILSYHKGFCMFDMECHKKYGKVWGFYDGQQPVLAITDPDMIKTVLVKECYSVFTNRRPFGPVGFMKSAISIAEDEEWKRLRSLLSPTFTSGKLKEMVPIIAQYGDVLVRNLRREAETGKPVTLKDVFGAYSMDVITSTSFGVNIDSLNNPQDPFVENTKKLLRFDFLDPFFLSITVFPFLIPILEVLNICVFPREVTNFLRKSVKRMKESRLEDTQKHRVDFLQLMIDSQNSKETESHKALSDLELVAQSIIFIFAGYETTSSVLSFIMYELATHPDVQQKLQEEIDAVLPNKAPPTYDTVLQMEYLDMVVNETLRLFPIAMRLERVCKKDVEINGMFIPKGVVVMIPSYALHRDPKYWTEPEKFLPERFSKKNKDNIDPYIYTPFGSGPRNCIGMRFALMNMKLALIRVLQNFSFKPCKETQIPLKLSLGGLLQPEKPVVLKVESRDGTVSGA
Protocol: (§1) Two specific toxicity assays have been performed to assess hepatoxicity and cardiotoxicity. Hepatotoxicity was evaluated in isolated hepatocytes from swiss mice and determined by the MTT colorimetric assay. Cardiotoxicity was evaluated using the commercially available Predictor hERG fluorescence polarization kit (Thermo Fisher Scientific). Several ADME assays have been carried out on the compounds generated throughout the project. The following experiments were undertaken: Stability in human microsomes, binding to human plasma protein, and CYP3A4 inhibition assay (Vivid CYP3A4 assay, Thermo Fisher Scientific). Physico-chemical properties were also assessed such as aqueous solubility and chemical stability.

Aqueous solubility = format: physicochemical
Protocol: as §1

[2] = tested on: isolated hepatocytes from swiss mice; assay: Hepatotoxicity, MTT colorimetric assay; format: cell-based
Protocol: as §1

CKD Mouse Model [3] = assay: Renal profibrotic and inflammatory gene expression in the CKD mouse model; format: in vivo, mice; settings: kidney, two months administration
Protocol: (§2) Chronic kidney disease (CKD) was induced by subtotal nephrectomy (Nx) in eight-weeks-old FVB male mice (25-26 g). All surgeries were performed under ketamine/xylazine anaesthesia. Briefly, the left kidney was exposed, and the upper and lower poles were tied with a poly-glycolic acid suture line. The peritoneum and skin were then sutured, and the animals were returned to their individual cages. After one week of recovery, the second kidney was removed. Removal of the second kidney represents TO. Sham mice were subjected to the same surgical procedures but neither renal poles nor the right kidney were removed. Mice were monitored for any sign of distress, and those observed to be experiencing severe, unrelievable pain were euthanized. Renal failure was assessed by the measure of plasma creatinine and urea with an automatic analyser (Konelab 20i; Thermo Fisher Scientific, Vernon Hills, Ill.) at weeks 4 and 10 post-Nx.
Frozen tissues (kidneys, heart) were homogenized in TRIzol (Life Technologies, 15596018) using FastPrep beads (MP-Bio, 6913-100). cDNAs were generated using the Superscript II reverse transcriptase kit (Invitrogen, 18064022), and qPCR was performed as previously described. Briefly, transcript levels were analysed in a CFX396 apparatus (Biorad). The reactions were performed in duplicate for each sample using the IQ SYBR Green supermix Kit (Biorad, 170-8882). […]

CKD Mouse Model [4] = assay: Blood pressure in the CKD mouse model (subtotal nephrectomy); format: in vivo, mice; settings: two months administration; FIG. 13
Protocol: Systolic BP was measured by tail-cuff plethysmography in trained conscious mice at weeks 8-10 using a BP2000 Visitech model. BP was measured every day in the same room at the same hour for 5 consecutive days. The BP measurements (expressed as mmHg) presented are the averages of the last 3 days
as §2

T1 sequence (P80188 21-198): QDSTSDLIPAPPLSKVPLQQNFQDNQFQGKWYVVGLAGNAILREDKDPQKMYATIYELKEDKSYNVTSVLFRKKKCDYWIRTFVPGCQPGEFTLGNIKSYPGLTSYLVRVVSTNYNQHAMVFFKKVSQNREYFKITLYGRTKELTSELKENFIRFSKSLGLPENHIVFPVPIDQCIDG

With `CC(=O)c1cccc(S(=O)(=O)NCc2ccccc2-n2cccn2)c1` [GPZ614741] the “Col 1 secretion (NGAL-induced)” value (NGAL) was “inhibited”, the “increase of blood pressure induced by the combination of L-NAME and high salt (HSD)” value [1] was “prevented the increase” and the “processing by CYP3A4” value (CYP3A4) was “partially processed”. For the same compound, the Activity (CYP3A4; human, recombinant CYP3A4 (Vivid CYP3A4 assay kit), 100 = no inhibition, read-out: CyP 3A4 Inhibition % (100 = no inhibition)) was 72.2 ± 1.94%, the Aquous solubility (Aqueous solubility) was 100% and the “solubility in aqueous buffers (solubility test)” value (Aqueous solubility) was “perfectly soluble”. For the same compound, the “hepatotoxicity (toxicity for hepatocytes)” value ([2]; MTT up to 0.1 mM) was “no toxicity”, the Hepatotoxicity ([2]; cell wrapped over two lines: No tox up / 100 uM) was “No tox up” and the “profibrotic target genes (collagen1, fibronectin, alphaSMA)” value (CKD Mouse Model [3]; FIG. 15A) was “blunted the increase”. The “inflammatory markers (IL6, MCP1, TNFalpha)” value (CKD Mouse Model [3]; FIG. 15B) was “no effects” and the “increase of blood pressure induced by CKD” value (CKD Mouse Model [4]) was “prevented the increase”.
